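Briefly, cells in 96-well plates were exposed to five compound concentrations for 48 h, and endpoints were estimated by linear interpolation. GI50: concentration for 50% inhibition of growth. TGI denotes the concentration required for complete inhibition of growth.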
Tests used:
Test in all cases: NCI anticancer screen, dose series, 48 h
UO-31 renal = tested on: UO-31 renal
NCI/ADR-RES ovarian = tested on: NCI/ADR-RES ovarian
NCI-H522 lung = tested on: NCI-H522 lung
SNB-19 CNS = tested on: SNB-19 CNS
NCI-H23 lung = tested on: NCI-H23 lung
SR leukemia = tested on: SR leukemia
SW-620 colon = tested on: SW-620 colon
HOP-62 NSCLC = tested on: HOP-62 NSCLC
HCT-116 colon = tested on: HCT-116 colon
TK-10 renal = tested on: TK-10 renal
SK-OV-3 ovarian = tested on: SK-OV-3 ovarian
KM12 colon = tested on: KM12 colon
SF-295 CNS = tested on: SF-295 CNS
HCC-2998 colon = tested on: HCC-2998 colon
A549 NSCLC = tested on: A549 NSCLC
CCRF-CEM leukemia = tested on: CCRF-CEM leukemia
SK-MEL-5 melanoma = tested on: SK-MEL-5 melanoma
OVCAR-8 ovarian = tested on: OVCAR-8 ovarian
M14 melanoma = tested on: M14 melanoma
HS 578T breast = tested on: HS 578T breast
CAKI-1 renal = tested on: CAKI-1 renal
SN12C renal = tested on: SN12C renal
SNB-75 CNS = tested on: SNB-75 CNS
MDA-MB-231 breast = tested on: MDA-MB-231 breast
BT-549 breast = tested on: BT-549 breast
HT29 colon = tested on: HT29 colon

Oc1ccc(Cl)cc1-c1cc(-c2ccccc2Cl)[nH]n1
TGI (UO-31 renal): > 100 µM | GI50 (NCI/ADR-RES ovarian): 8.55 µM | TGI (NCI/ADR-RES ovarian): > 100 µM | GI50 (NCI-H522 lung): 3.26 µM | TGI (NCI-H522 lung): > 100 µM | GI50 (SNB-19 CNS): > 100 µM | TGI (SNB-19 CNS): > 100 µM | GI50 (NCI-H23 lung): 4.91 µM | TGI (NCI-H23 lung): > 100 µM | GI50 (SR leukemia): 4.12 µM | TGI (SR leukemia): > 100 µM | GI50 (SW-620 colon): 77.2 µM | TGI (SW-620 colon): > 100 µM | GI50 (HOP-62 NSCLC): 19.3 µM | TGI (HOP-62 NSCLC): > 100 µM | GI50 (HCT-116 colon): 4.6 µM | TGI (HCT-116 colon): > 100 µM | GI50 (TK-10 renal): 29.4 µM | TGI (TK-10 renal): > 100 µM | GI50 (SK-OV-3 ovarian): > 100 µM | TGI (SK-OV-3 ovarian): > 100 µM | GI50 (KM12 colon): 2.41 µM | TGI (KM12 colon): > 100 µM | GI50 (SF-295 CNS): 8.71 µM | TGI (SF-295 CNS): > 100 µM | GI50 (HCC-2998 colon): 2.86 µM | TGI (HCC-2998 colon): 17.4 µM | GI50 (A549 NSCLC): 4.74 µM | TGI (A549 NSCLC): > 100 µM | GI50 (CCRF-CEM leukemia): 2.71 µM | TGI (CCRF-CEM leukemia): > 100 µM | GI50 (SK-MEL-5 melanoma): 5.66 µM | TGI (SK-MEL-5 melanoma): > 100 µM | GI50 (OVCAR-8 ovarian): 7.13 µM | TGI (OVCAR-8 ovarian): > 100 µM | GI50 (M14 melanoma): 25.9 µM | TGI (M14 melanoma): > 100 µM | GI50 (HS 578T breast): 7.85 µM | TGI (HS 578T breast): > 100 µM | GI50 (CAKI-1 renal): 2.87 µM | TGI (CAKI-1 renal): > 100 µM | GI50 (SN12C renal): 6.32 µM | TGI (SN12C renal): > 100 µM | GI50 (SNB-75 CNS): 2.77 µM | TGI (SNB-75 CNS): > 100 µM | GI50 (MDA-MB-231 breast): 1.44 µM | TGI (MDA-MB-231 breast): 6.29 µM | GI50 (BT-549 breast): 36 µM | TGI (BT-549 breast): > 100 µM | GI50 (HT29 colon): 15.2 µM | TGI (HT29 colon): > 100 µM
